Results published in US8952024B2, “Herbicidal pyrimidone derivatives” (E I du Pont de Nemours and Company, priority 2009, dated 2015).

Experiments:
Assay in all cases: Test D pre-/postemergence plant response
Format in all cases: in vivo
[1] = tested on: kochia (Kochia scoparia); conditions: Postemergence
Outline: (§1)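 Scores (0 no effect, 100 complete control) reflect visual assessment against untreated plants after 14 to 21 days. Treatments were pre- and postemergence sprays in solvent with surfactant.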

[2] = tested on: sowthistle (common sowthistle, Sonchus oleraceous); conditions: Postemergence
Outline: as §1

[3] = tested on: dallisgrass (Paspalum dilatatum); conditions: Postemergence
Outline: as §1

[4] = tested on: dayflower (Virginia (VA) dayflower, Commelina virginica); conditions: Postemergence
Outline: as §1

[5] = tested on: Russian thistle (Salsola kali); conditions: Postemergence
Outline: as §1

[6] = tested on: johnsongrass (Sorghum halepense); conditions: Postemergence
Outline: as §1

[7] = tested on: signalgrass (broadleaf signalgrass, Brachiaria platyphylla); conditions: Postemergence
Outline: as §1

[8] = tested on: Surinam grass (Brachiaria decumbens); conditions: Postemergence
Outline: as §1

[9] = tested on: itchgrass (Rottboellia cochinchinensis); conditions: Postemergence
Outline: as §1

[10] = tested on: bluegrass (annual bluegrass, Poa annua); conditions: Postemergence, scale 0 to 100 (0 no effect, 100 complete control)
Outline: as §1

[11] = tested on: green foxtail (Setaria viridis); conditions: Postemergence
Outline: as §1

[12] = tested on: spanishneedles (Bidens bipinnata); conditions: Postemergence
Outline: as §1

[13] = tested on: bermudagrass (Cynodon dactylon); conditions: Postemergence, scale 0 to 100 (0 no effect, 100 complete control)
Outline: as §1

[14] = tested on: goosegrass (Eleusine indica); conditions: Postemergence
Outline: as §1

[15] = tested on: barnyardgrass (Echinochloa crus-galli); conditions: Postemergence, scale 0 to 100 (0 no effect, 100 complete control)
Outline: as §1

[16] = tested on: purslane (common purslane, Portulaca oleracea); conditions: Postemergence
Outline: as §1

[17] = tested on: chickweed (common chickweed, Stellaria media); conditions: Postemergence
Outline: as §1

[18] = tested on: mallow (common mallow, Malva sylvestris); conditions: Postemergence
Outline: as §1

[19] = 62 g ai/ha, scale 0 to 100 (0 no effect, 100 complete control)
[20] = 125 g ai/ha, scale 0 to 100 (0 no effect, 100 complete control)
[21] = 250 g ai/ha, scale 0 to 100 (0 no effect, 100 complete control)

Compound: COCCn1c(-c2cccc(F)c2)ncc(C(=O)C2=C(O)C3CCC(C3)C2=O)c1=O (stereo not drawn) [Compound 235]
- Plant response rating, Kochia ([1]; 31 g ai/ha, scale 0 to 100): 20
- Plant response rating, Kochia [1, 19]: 60
- Plant response rating, Kochia [1, 20]: 70
- Plant response rating, Kochia [1, 21]: 85
- Plant response rating, Sowthistle ([2]; 31 g ai/ha, scale 0 to 100): 98
- Plant response rating, Sowthistle [2, 19]: 98
- Plant response rating, Sowthistle [2, 20]: 98
- Plant response rating, Sowthistle [2, 21]: 98
- Plant response rating, Dallisgrass ([3]; 31 g ai/ha, scale 0 to 100): 70
- Plant response rating, Dallisgrass [3, 19]: 75
- Plant response rating, Dallisgrass [3, 20]: 80
- Plant response rating, Dallisgrass [3, 21]: 80
- Plant response rating, Dayflower, VA ([4]; 31 g ai/ha, scale 0 to 100): 60
- Plant response rating, Dayflower, VA [4, 19]: 70
- Plant response rating, Dayflower, VA [4, 20]: 75
- Plant response rating, Dayflower, VA [4, 21]: 75
- Plant response rating, Russian Thistle ([5]; 31 g ai/ha, scale 0 to 100): 30
- Plant response rating, Russian Thistle [5, 19]: 30
- Plant response rating, Russian Thistle [5, 20]: 50
- Plant response rating, Russian Thistle [5, 21]: 60
- Plant response rating, Johnsongrass ([6]; 31 g ai/ha, scale 0 to 100): 70
- Plant response rating, Johnsongrass [6, 19]: 70
- Plant response rating, Johnsongrass [6, 20]: 85
- Plant response rating, Johnsongrass [6, 21]: 85
- Plant response rating, Signalgrass ([7]; 31 g ai/ha, scale 0 to 100): 65
- Plant response rating, Signalgrass [7, 19]: 90
- Plant response rating, Signalgrass [7, 20]: 90
- Plant response rating, Signalgrass [7, 21]: 95
- Plant response rating, Surinam Grass ([8]; 31 g ai/ha, scale 0 to 100): 75
- Plant response rating, Surinam Grass [8, 19]: 75
- Plant response rating, Surinam Grass [8, 20]: 75
- Plant response rating, Surinam Grass [8, 21]: 85
- Plant response rating, Itchgrass ([9]; 31 g ai/ha, scale 0 to 100): 70
- Plant response rating, Itchgrass [9, 19]: 75
- Plant response rating, Itchgrass [9, 20]: 80
- Plant response rating, Itchgrass [9, 21]: 90
- Plant response rating, Bluegrass ([10]; 31 g ai/ha): 5
- Plant response rating, Bluegrass ([10]; 62 g ai/ha): 20
- Plant response rating, Bluegrass ([10]; 125 g ai/ha): 35
- Plant response rating, Bluegrass ([10]; 250 g ai/ha): 50
- Plant response rating, Foxtail, Green ([11]; 31 g ai/ha, scale 0 to 100): 70
- Plant response rating, Foxtail, Green [11, 19]: 95
- Plant response rating, Foxtail, Green [11, 20]: 98
- Plant response rating, Foxtail, Green [11, 21]: 98
- Plant response rating, Spanishneedles ([12]; 31 g ai/ha, scale 0 to 100): 65
- Plant response rating, Spanishneedles [12, 19]: 70
- Plant response rating, Spanishneedles [12, 20]: 80
- Plant response rating, Spanishneedles [12, 21]: 85
- Plant response rating, Bermudagrass ([13]; 31 g ai/ha): 80
- Plant response rating, Bermudagrass ([13]; 62 g ai/ha): 95
- Plant response rating, Bermudagrass ([13]; 125 g ai/ha): 95
- Plant response rating, Bermudagrass ([13]; 250 g ai/ha): 95
- Plant response rating, Goosegrass ([14]; 31 g ai/ha, scale 0 to 100): 75
- Plant response rating, Goosegrass [14, 19]: 75
- Plant response rating, Goosegrass [14, 20]: 75
- Plant response rating, Goosegrass [14, 21]: 75
- Plant response rating, Barnyardgrass ([15]; 31 g ai/ha): 80
- Plant response rating, Barnyardgrass ([15]; 62 g ai/ha): 80
- Plant response rating, Barnyardgrass ([15]; 125 g ai/ha): 95
- Plant response rating, Barnyardgrass ([15]; 250 g ai/ha): 95
- Plant response rating, Purslane ([16]; 31 g ai/ha, scale 0 to 100): 60
- Plant response rating, Purslane [16, 19]: 60
- Plant response rating, Purslane [16, 20]: 60
- Plant response rating, Purslane [16, 21]: 70
- Plant response rating, Chickweed ([17]; 31 g ai/ha, scale 0 to 100): 5
- Plant response rating, Chickweed [17, 19]: 30
- Plant response rating, Chickweed [17, 20]: 60
- Plant response rating, Chickweed [17, 21]: 70
- Plant response rating, Mallow ([18]; 31 g ai/ha, scale 0 to 100): 10
- Plant response rating, Mallow [18, 19]: 50
- Plant response rating, Mallow [18, 20]: 70
- Plant response rating, Mallow [18, 21]: 70
